From ChEMBL document CHEMBL1201862, “PubChem BioAssay data set” (2004)
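All cell lines were grown in 96-well plates and treated with compound for 48 hours. The concentration for 50% growth inhibition is given as GI50.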 Active and inactive are the calls of the source. Cut-off read from the data, not from the text of the source: active = GI50 up to about 1.1 µM and inactive = higher.

Columns and labels:
Experiment in all cases: DTP human tumour cell line panel, 48 h
SF-539 = system: SF-539
EKVX = system: EKVX
SK-MEL-2 = system: SK-MEL-2
HOP-62 = system: HOP-62
KM-20L2 = system: KM-20L2
SW-620 = system: SW-620
A549 = system: A549
NCI-H522 = system: NCI-H522
SK-MEL-28 = system: SK-MEL-28
HOP-18 = system: HOP-18
DLD-1 = system: DLD-1
SK-OV-3 = system: SK-OV-3
UO-31 = system: UO-31
HCC 2998 = system: HCC 2998
SF-295 = system: SF-295
IGROV-1 = system: IGROV-1
SF-268 = system: SF-268
MOLT-4 = system: MOLT-4
NCI-H460 = system: NCI-H460
SNB-78 = system: SNB-78
786-0 = system: 786-0
M14 = system: M14
OVCAR-4 = system: OVCAR-4
XF498 = system: XF498
SNB-75 = system: SNB-75
SK-MEL-5 = system: SK-MEL-5
COLO 205 = system: COLO 205
HT-29 = system: HT-29
LXFL 529 = system: LXFL 529
ACHN = system: ACHN
KM12 = system: KM12
RPMI-8226 = system: RPMI-8226
HCT-15 = system: HCT-15
CCRF-CEM = system: CCRF-CEM
OVCAR-5 = system: OVCAR-5
M19-MEL = system: M19-MEL
TK-10 = system: TK-10
A498 = system: A498
Malme-3M = system: Malme-3M
HCT-116 = system: HCT-116
U-251 = system: U-251
NCI-H23 = system: NCI-H23
UACC-62 = system: UACC-62
OVCAR-3 = system: OVCAR-3
OVCAR-8 = system: OVCAR-8
SN12C = system: SN12C
K562 = system: K562
DMS-114 = system: DMS-114
UACC-257 = system: UACC-257
CAKI-1 = system: CAKI-1
SNB-19 = system: SNB-19
HOP-92 = system: HOP-92
NCI-H226 = system: NCI-H226
LOX IMVI = system: LOX IMVI
HL-60 = system: HL-60
DMS-273 = system: DMS-273
SR = system: SR
RXF 393 = system: RXF 393

CN(C)c1ccc(/C=C/C(=O)C(C)(C)C)cc1Br
GI50 (SF-539): 25.1 µM (inactive)
GI50 (EKVX): 44.4 µM (inactive)
GI50 (SK-MEL-2): 18.9 µM (inactive)
GI50 (HOP-62): 63.5 µM (inactive)
GI50 (KM-20L2): 25.6 µM (inactive)
GI50 (SW-620): 27.7 µM (inactive)
GI50 (A549): 39.9 µM (inactive)
GI50 (NCI-H522): 16.1 µM (inactive)
GI50 (SK-MEL-28): 17.8 µM (inactive)
GI50 (HOP-18): > 100 µM (inactive)
GI50 (DLD-1): 18.7 µM (inactive)
GI50 (SK-OV-3): 52.1 µM (inactive)
GI50 (UO-31): 32.1 µM (inactive)
GI50 (HCC 2998): 27.4 µM (inactive)
GI50 (SF-295): 40.3 µM (inactive)
GI50 (IGROV-1): 35.4 µM (inactive)
GI50 (SF-268): 20.3 µM (inactive)
GI50 (MOLT-4): 21.2 µM (inactive)
GI50 (NCI-H460): 35.8 µM (inactive)
GI50 (SNB-78): 44.2 µM (inactive)
GI50 (786-0): 24 µM (inactive)
GI50 (M14): 18.9 µM (inactive)
GI50 (OVCAR-4): 19.9 µM (inactive)
GI50 (XF498): 15 µM (inactive)
GI50 (SNB-75): 20.1 µM (inactive)
GI50 (SK-MEL-5): 18.7 µM (inactive)
GI50 (COLO 205): 25.7 µM (inactive)
GI50 (HT-29): 31.8 µM (inactive)
GI50 (LXFL 529): 30 µM (inactive)
GI50 (ACHN): 31.5 µM (inactive)
GI50 (KM12): 24.1 µM (inactive)
GI50 (RPMI-8226): 19.5 µM (inactive)
GI50 (HCT-15): 19.9 µM
GI50 (CCRF-CEM): 24.6 µM (inactive)
GI50 (OVCAR-5): 49 µM (inactive)
GI50 (M19-MEL): 19.8 µM (inactive)
GI50 (TK-10): 30.8 µM (inactive)
GI50 (A498): 41.1 µM (inactive)
GI50 (Malme-3M): 28.4 µM (inactive)
GI50 (HCT-116): 17.7 µM (inactive)
GI50 (U-251): 27.4 µM (inactive)
GI50 (NCI-H23): 26.1 µM (inactive)
GI50 (UACC-62): 16.7 µM (inactive)
GI50 (OVCAR-3): 33.3 µM (inactive)
GI50 (OVCAR-8): 21.8 µM (inactive)
GI50 (SN12C): 24.9 µM (inactive)
GI50 (K562): 25.2 µM (inactive)
GI50 (DMS-114): 18.5 µM (inactive)
GI50 (UACC-257): 24 µM (inactive)
GI50 (CAKI-1): 23.9 µM (inactive)
GI50 (SNB-19): 31.6 µM (inactive)

NCCSc1nc(N)c2ncn(C3OC(CO)C(O)C3O)c2n1 (stereo not drawn)
GI50 (SF-539): > 100 µM (inactive)
GI50 (SK-MEL-2): > 100 µM (inactive)
GI50 (HOP-62): > 100 µM (inactive)
GI50 (KM-20L2): > 100 µM (inactive)
GI50 (SW-620): > 100 µM (inactive)
GI50 (A549): > 100 µM (inactive)
GI50 (NCI-H522): > 100 µM (inactive)
GI50 (SK-MEL-28): > 100 µM (inactive)
GI50 (HOP-18): > 100 µM (inactive)
GI50 (DLD-1): > 100 µM (inactive)
GI50 (SK-OV-3): > 100 µM (inactive)
GI50 (UO-31): > 100 µM (inactive)
GI50 (HCC 2998): > 100 µM (inactive)
GI50 (SF-295): > 100 µM (inactive)
GI50 (IGROV-1): > 100 µM (inactive)
GI50 (SF-268): > 100 µM (inactive)
GI50 (MOLT-4): > 100 µM (inactive)
GI50 (NCI-H460): > 100 µM (inactive)
GI50 (HOP-92): > 100 µM (inactive)
GI50 (SNB-78): > 100 µM (inactive)
GI50 (786-0): > 100 µM (inactive)
GI50 (NCI-H226): > 100 µM (inactive)
GI50 (M14): > 100 µM (inactive)
GI50 (LOX IMVI): > 100 µM (inactive)
GI50 (OVCAR-4): > 100 µM (inactive)
GI50 (XF498): > 100 µM (inactive)
GI50 (SNB-75): > 100 µM (inactive)
GI50 (HL-60): > 100 µM (inactive)
GI50 (SK-MEL-5): > 100 µM (inactive)
GI50 (COLO 205): > 100 µM (inactive)
GI50 (DMS-273): > 100 µM (inactive)
GI50 (HT-29): > 100 µM (inactive)
GI50 (ACHN): > 100 µM (inactive)
GI50 (KM12): > 100 µM (inactive)
GI50 (RPMI-8226): > 100 µM (inactive)
GI50 (HCT-15): > 100 µM
GI50 (CCRF-CEM): > 100 µM (inactive)
GI50 (OVCAR-5): > 100 µM (inactive)
GI50 (M19-MEL): > 100 µM (inactive)
GI50 (TK-10): > 100 µM (inactive)
GI50 (A498): > 100 µM (inactive)
GI50 (Malme-3M): > 100 µM (inactive)
GI50 (HCT-116): > 100 µM (inactive)
GI50 (U-251): > 100 µM (inactive)
GI50 (NCI-H23): > 100 µM (inactive)
GI50 (UACC-62): > 100 µM (inactive)
GI50 (OVCAR-3): > 100 µM (inactive)
GI50 (OVCAR-8): > 100 µM (inactive)
GI50 (SN12C): > 100 µM (inactive)
GI50 (SR): > 100 µM (inactive)
GI50 (K562): > 100 µM (inactive)
GI50 (DMS-114): > 100 µM (inactive)
GI50 (UACC-257): > 100 µM (inactive)
GI50 (CAKI-1): > 100 µM (inactive)
GI50 (SNB-19): > 100 µM (inactive)

NC1=NC2=c3ccccc3=C(c3cnccn3)C2(c2cnccn2)c2ccccc21 (stereo not drawn)
GI50 (SF-539): 80.5 µM (inactive)
GI50 (EKVX): 44.7 µM (inactive)
GI50 (SK-MEL-2): > 100 µM (inactive)
GI50 (HOP-62): > 100 µM (inactive)
GI50 (KM-20L2): > 100 µM (inactive)
GI50 (SW-620): > 100 µM (inactive)
GI50 (A549): 45.7 µM (inactive)
GI50 (NCI-H522): 49.5 µM (inactive)
GI50 (SK-MEL-28): > 100 µM (inactive)
GI50 (HOP-18): > 100 µM (inactive)
GI50 (DLD-1): > 100 µM (inactive)
GI50 (SK-OV-3): > 100 µM (inactive)
GI50 (UO-31): 44.4 µM (inactive)
GI50 (HCC 2998): > 100 µM (inactive)
GI50 (SF-295): 42.2 µM (inactive)
GI50 (IGROV-1): > 100 µM (inactive)
GI50 (SF-268): 74.1 µM (inactive)
GI50 (MOLT-4): 33.6 µM (inactive)
GI50 (NCI-H460): 58.6 µM (inactive)
GI50 (HOP-92): 37.9 µM (inactive)
GI50 (SNB-78): 49.1 µM (inactive)
GI50 (786-0): > 100 µM (inactive)
GI50 (NCI-H226): 34.7 µM (inactive)
GI50 (M14): > 100 µM (inactive)
GI50 (LOX IMVI): 64.4 µM (inactive)
GI50 (OVCAR-4): 42.4 µM (inactive)
GI50 (XF498): 36.7 µM (inactive)
GI50 (SNB-75): 39.6 µM (inactive)
GI50 (HL-60): 52.8 µM (inactive)
GI50 (SK-MEL-5): 34 µM (inactive)
GI50 (COLO 205): 32.4 µM (inactive)
GI50 (DMS-273): > 100 µM (inactive)
GI50 (HT-29): 89.5 µM (inactive)
GI50 (ACHN): 64.4 µM (inactive)
GI50 (KM12): 81.8 µM (inactive)
GI50 (RXF 393): > 100 µM (inactive)
GI50 (RPMI-8226): 58.7 µM (inactive)
GI50 (HCT-15): > 100 µM
GI50 (CCRF-CEM): 89.7 µM (inactive)
GI50 (OVCAR-5): > 100 µM (inactive)
GI50 (M19-MEL): > 100 µM (inactive)
GI50 (TK-10): 87.9 µM (inactive)
GI50 (A498): 18.2 µM (inactive)
GI50 (Malme-3M): 49.9 µM (inactive)
GI50 (HCT-116): 76.9 µM (inactive)
GI50 (U-251): 98.9 µM (inactive)
GI50 (NCI-H23): 91.4 µM (inactive)
GI50 (UACC-62): > 100 µM (inactive)
GI50 (OVCAR-3): 13.8 µM (inactive)
GI50 (OVCAR-8): 73.3 µM (inactive)
GI50 (SN12C): > 100 µM (inactive)
GI50 (SR): 39.5 µM (inactive)
GI50 (K562): 66.5 µM (inactive)
GI50 (DMS-114): 50.4 µM (inactive)
GI50 (UACC-257): 37.1 µM (inactive)
GI50 (CAKI-1): 42.8 µM (inactive)
GI50 (SNB-19): 48.2 µM (inactive)
